Measurements from patent US20220242846A1, “ISOINDOLINONE COMPOUNDS” (Monte Rosa Therapeutics AG, priority 2019, published 2022).

Assays:
Format in all cases: cell-based
[1] = molecular target: T1, IKZF1 (Homo sapiens, UniProt Q13422); assay: Selectivity determination by Western Blot assay in MM1S cells: IKZF1; design: key: A represents a no degradation observed at 30 μM; B represents trace degradation at 30 μM (below 20%); C represents weak degradation at 30 μM (below 50%); D represents degradation at 30 μM (>90%); E represents degradation at 3 μM (>90%); F represents degradation at 0.3 μM (>90%); details: MM1S cells, 0.3, 3 and 30 μM, 6 hours
T1 construct: MM1S cells were purchased from ATCC (cat. Number CRL-2974); endogenous in cells; host or cells: MM1S (ATCC CRL-2974)
T1 sequence (Q96SW2 whole entry partner): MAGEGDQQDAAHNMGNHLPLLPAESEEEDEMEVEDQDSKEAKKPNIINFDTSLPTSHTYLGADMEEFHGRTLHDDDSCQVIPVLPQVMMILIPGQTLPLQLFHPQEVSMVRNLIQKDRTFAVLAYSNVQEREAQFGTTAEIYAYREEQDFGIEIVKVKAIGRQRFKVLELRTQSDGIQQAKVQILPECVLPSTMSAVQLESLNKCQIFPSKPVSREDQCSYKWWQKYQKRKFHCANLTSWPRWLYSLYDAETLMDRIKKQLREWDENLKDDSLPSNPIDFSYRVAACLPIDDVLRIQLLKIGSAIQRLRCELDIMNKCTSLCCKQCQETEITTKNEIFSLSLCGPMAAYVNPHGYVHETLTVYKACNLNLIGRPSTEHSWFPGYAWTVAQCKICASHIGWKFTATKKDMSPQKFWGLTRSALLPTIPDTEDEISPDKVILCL
T1 sequence (Q16531 2-1140 partner limits assumed): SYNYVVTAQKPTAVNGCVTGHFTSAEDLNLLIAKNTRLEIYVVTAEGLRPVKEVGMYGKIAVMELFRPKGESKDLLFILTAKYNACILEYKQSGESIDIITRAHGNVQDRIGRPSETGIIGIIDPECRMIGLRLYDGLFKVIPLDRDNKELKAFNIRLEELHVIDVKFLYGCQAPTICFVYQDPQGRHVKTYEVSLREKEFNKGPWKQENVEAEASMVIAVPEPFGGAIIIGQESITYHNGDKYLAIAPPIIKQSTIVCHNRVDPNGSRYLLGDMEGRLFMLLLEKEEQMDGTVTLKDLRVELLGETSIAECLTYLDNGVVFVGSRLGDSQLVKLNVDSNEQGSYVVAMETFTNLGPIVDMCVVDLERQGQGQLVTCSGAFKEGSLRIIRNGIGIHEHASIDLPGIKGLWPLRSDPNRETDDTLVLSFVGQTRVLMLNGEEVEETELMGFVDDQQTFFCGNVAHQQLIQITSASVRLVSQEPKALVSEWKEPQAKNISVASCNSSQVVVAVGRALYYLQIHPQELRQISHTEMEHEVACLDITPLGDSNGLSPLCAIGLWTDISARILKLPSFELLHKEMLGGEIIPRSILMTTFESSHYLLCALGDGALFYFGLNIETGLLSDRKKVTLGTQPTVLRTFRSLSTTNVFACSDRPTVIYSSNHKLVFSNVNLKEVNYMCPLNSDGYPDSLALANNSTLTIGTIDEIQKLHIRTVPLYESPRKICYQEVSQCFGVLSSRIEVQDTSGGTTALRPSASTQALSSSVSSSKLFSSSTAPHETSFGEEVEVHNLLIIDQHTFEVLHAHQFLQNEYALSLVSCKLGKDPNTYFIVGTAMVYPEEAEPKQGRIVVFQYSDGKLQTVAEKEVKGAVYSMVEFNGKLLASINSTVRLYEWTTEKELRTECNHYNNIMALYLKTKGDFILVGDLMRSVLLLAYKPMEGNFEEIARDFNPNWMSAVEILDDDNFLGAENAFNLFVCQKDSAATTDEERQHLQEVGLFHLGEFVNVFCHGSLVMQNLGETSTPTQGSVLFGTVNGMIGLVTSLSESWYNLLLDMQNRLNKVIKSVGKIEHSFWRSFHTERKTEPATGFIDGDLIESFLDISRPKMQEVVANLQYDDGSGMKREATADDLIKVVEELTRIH
T1 sequence (Q13422 whole entry): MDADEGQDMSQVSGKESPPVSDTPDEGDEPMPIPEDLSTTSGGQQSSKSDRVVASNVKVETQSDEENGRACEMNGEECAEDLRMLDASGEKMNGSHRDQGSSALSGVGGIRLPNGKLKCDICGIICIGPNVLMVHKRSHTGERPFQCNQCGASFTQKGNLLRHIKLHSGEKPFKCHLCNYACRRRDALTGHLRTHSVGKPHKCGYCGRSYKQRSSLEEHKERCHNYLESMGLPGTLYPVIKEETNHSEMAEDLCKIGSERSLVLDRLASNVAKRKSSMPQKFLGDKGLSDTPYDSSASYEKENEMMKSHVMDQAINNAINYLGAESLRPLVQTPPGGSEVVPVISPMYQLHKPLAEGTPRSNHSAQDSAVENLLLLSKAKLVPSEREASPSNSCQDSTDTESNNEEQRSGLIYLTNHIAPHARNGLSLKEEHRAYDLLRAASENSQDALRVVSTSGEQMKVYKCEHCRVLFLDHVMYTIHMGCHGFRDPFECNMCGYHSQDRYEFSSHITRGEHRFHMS
Experimental: (§1) CK1alpha/Ikaros/Aiolos/ZFP91 Selectivity determination by Western Blot Assay
(§2) MM1S cells were purchased from ATCC (cat. Number CRL-2974), sub-cultured in 90% RPMI 1640 with 10% FBS, supplemented with 1× P/S and incubated at 37° C., 5% CO2. Compounds were stored as 10 mM DMSO stock. For the assay, MM1S cells (3 million cells/well) were plated in 6-well plates and incubated over night. Cells were treated with respective compounds using a serial dilution: 0.3 μM, 3 μM and 30 μM as well as a vehicle only (DMSO) control for 6 hours. Media with suspension cells was subsequently transferred to 15 mL conical tubes, wells rinsed twice with ice-cold PBS and merged with cell suspension in respective 15 mL conical tube. Cells were spinned down, supernatant aspirated, pellets resuspended in ice-cold PBS and transferred to microtubes. Cells were spinned down, supernatant aspirated and pellets resuspended in 120 μL RIPA lysis buffer supplemented with protease and phosphatase inhibitors. Cell lysates were incubated on ice for 20 minutes followed by centrifugation at >20,000×g for 5 mM. Supernatants were transferred to fresh microtubes and stored at −80° C. Total protein concentration was determined using a BCA assay with a BSA standard curve and concentration of all samples was adjusted to 1 mg/mL. 25 μL 4× LDS sample buffer supplemented with 100 mM DTT was added to 75 μL sample. Samples were centrifuged (8,000×g, 1 min) and incubated at 95° C. for […] followed by another centrifugation step (8,000×g, 1 mM). 20 μL of each sample was loaded on a 4-12% gel alongside a protein molecular weight marker. Gels were run in the presence of MOPS buffer at 80 Volts for […], followed by 120 Volts for 1.5 h and proteins subsequently transferred onto nitrocellulose membranes at 20 Volts for 7 mM using an iBlot2 Gel Transfer Device. Membranes were then cut horizontally into two pieces, covering 80-50 kDa and 50-25 kDa. Blocking the membranes was performed by gently shaking in 5% (w/v) skim milk in TSB-T for 1 hr at room temperature. All primary antibodies were used at a 1/1000 in 5% (w/v) BSA dissolved in TBST and incubated with membranes over night at 4° C. After three washes with 1× TBST for 5 mM, HRP-coupled secondary antibodies diluted in 5% (w/v) BSA/TBST (Goat Anti-Rb IgG, dil. 1/10,000; Goat Anti-Mouse IgG, dil. 1/5000) were added for 1 hr at room temperature. After three washes with 1× TBST (5 minutes each), membranes were incubated with ECL reagent for 1 mM at room temperature. Chemiluminescence signals were then detected using a LAS-4000 system with default settings and signals quantified using Image Studio Lite software (version 5.2). Membrane parts previously incubated with antibody against CK1alpha were stripped off antibodies by incubating with stripping buffer for 30 minutes followed by three washed with TBST (5 mM each), blocking with 5% (w/v) skim milk for 1 hr, and incubation with primary antibody against GAPDH overnight at 4° C. Subsequent washes, incubation with secondary antibody and signal acquisition were performed as described above.
(§3) Table 5 assigns each compound a code indicating the ability for the degradation of IKZF1, IKZF3, CK1alpha and ZFP91: A, B, C, D, E or F. According to the code, A represents a no degradation observed at 30 μM, B represents trace degradation at 30 μM (below 20%), C represents weak degradation at 30 μM (below 50%), D represents degradation at 30 μM (>90%), E represents degradation at 3 μM (>90%) and F represents degradation at 0.3 μM (>90%).

[2] = molecular target: T2, CK1alpha (Homo sapiens, UniProt P48729); assay: Selectivity determination by Western Blot assay in MM1S cells: CK1alpha; design: key: A represents a no degradation observed at 30 μM; B represents trace degradation at 30 μM (below 20%); C represents weak degradation at 30 μM (below 50%); D represents degradation at 30 μM (>90%); E represents degradation at 3 μM (>90%); F represents degradation at 0.3 μM (>90%); details: MM1S cells, 0.3, 3 and 30 μM, 6 hours
T2 construct: MM1S cells were purchased from ATCC (cat. Number CRL-2974); endogenous in cells; host or cells: MM1S (ATCC CRL-2974)
T2 sequence (Q96SW2 whole entry partner): as the sequence (Q96SW2 whole entry partner) above
T2 sequence (Q16531 2-1140 partner limits assumed): as the sequence (Q16531 2-1140 partner limits assumed) above
T2 sequence (P48729 whole entry): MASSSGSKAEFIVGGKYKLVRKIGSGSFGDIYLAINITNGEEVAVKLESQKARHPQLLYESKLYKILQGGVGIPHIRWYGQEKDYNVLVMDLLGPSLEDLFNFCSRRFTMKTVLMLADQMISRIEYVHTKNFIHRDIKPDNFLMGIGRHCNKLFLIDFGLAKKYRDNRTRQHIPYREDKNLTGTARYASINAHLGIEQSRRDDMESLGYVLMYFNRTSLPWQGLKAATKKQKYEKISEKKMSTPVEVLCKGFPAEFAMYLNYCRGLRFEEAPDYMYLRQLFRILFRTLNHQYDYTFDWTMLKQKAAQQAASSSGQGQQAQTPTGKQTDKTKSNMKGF
Experimental: as §1, §2, §3

[3] = tested on: Human mammary epithelial cells (HMEC) engineered to express EGFP alone (non myc); assay: 3D spheroid assay, non myc-HMEC (CellTiterGlo3D viability); details: 120 h, 3D spheroids, 5 days with compound, read-out: Code: EC50 value in the non myc-HMEC assay
[4] = molecular target: GSPT1 (Homo sapiens, UniProt P15170+Q96SW2); assay: Selectivity determination by Western Blot assay in MM1S cells: GSPT1; design: MM1S cells were purchased from ATCC (cat. Number CRL-2974); endogenous in cells; host or cells: MM1S (ATCC CRL-2974); details: MM1S cells, 0.3, 3 and 30 μM, 6 hours
Chain of GSPT1 (P15170 whole entry): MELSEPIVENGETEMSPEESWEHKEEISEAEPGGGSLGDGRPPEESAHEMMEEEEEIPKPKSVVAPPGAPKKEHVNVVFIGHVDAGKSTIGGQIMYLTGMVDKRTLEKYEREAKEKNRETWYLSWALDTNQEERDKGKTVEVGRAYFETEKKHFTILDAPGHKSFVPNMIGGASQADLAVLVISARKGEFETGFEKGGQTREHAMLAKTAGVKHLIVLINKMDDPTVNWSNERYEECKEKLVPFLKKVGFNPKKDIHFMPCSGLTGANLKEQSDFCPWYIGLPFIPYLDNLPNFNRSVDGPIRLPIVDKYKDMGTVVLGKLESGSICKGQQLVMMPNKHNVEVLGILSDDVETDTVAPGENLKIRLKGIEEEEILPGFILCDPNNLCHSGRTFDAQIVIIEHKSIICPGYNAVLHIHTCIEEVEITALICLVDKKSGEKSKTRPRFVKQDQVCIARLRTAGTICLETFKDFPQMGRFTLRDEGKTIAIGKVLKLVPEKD
Chain of GSPT1 (Q96SW2 whole entry): as the sequence (Q96SW2 whole entry partner) above
Chain of GSPT1 (Q16531 2-1140 partner limits assumed): as the sequence (Q16531 2-1140 partner limits assumed) above
Experimental: [Worded in the source for another target; this target is reported under the same test.] as §1, §2, §3

Row | IKZF1 degradation code [1] | CK1alpha degradation code [2] | Structure (SMILES) | EC50 [3] [µM] | GSPT1 degradation code [4]
1 | A | A | Cc1ccc(NC(=O)NCc2ccc3c(c2)C(=O)N(C2CCC(=O)NC2=O)C3)cc1Cl (centres unmarked) [Compound 8] | > 10 | F (F represents degradation at 0.3 μM (>90%))
2 | A | A | Cc1c(Cl)cc(NC(=O)NCc2ccc3c(c2)C(=O)N(C2CCC(=O)NC2=O)C3)cc1CN(C)C (centres unmarked) [Compound 75] | > 10 | E (E represents degradation at 3 μM (>90%))
3 | A | A | Cc1c(Cl)cc(NC(=O)NCc2ccc3c(c2)C(=O)N(C2CCC(=O)NC2=O)C3)cc1CN1CCOCC1 (centres unmarked) [Compound 82] |  | F (F represents degradation at 0.3 μM (>90%))
4 | A | A | Cc1ccc(NC(=O)NCc2ccc3c(c2)C(=O)N(C2CCC(=O)NC2=O)C3)c(Cl)c1Cl (centres unmarked) [Compound 87] |  | E (E represents degradation at 3 μM (>90%))

Row | Structure (SMILES) | IKZF1 degradation code [1] | CK1alpha degradation code [2] | EC50 [3] [µM] | GSPT1 degradation code [4]
5 | Cc1cc(C)c(NC(=O)NCc2ccc3c(c2)C(=O)N(C2CCC(=O)NC2=O)C3)cc1Cl (centres unmarked) [Compound 85] | A | B (B represents trace degradation at 30 μM (below 20%)) |  | E (E represents degradation at 3 μM (>90%))
6 | O=C1CCC(N2Cc3ccc(CNC(=O)Nc4cccc(CN5CCOCC5)c4)cc3C2=O)C(=O)N1 (centres unmarked) [Compound 105] | B (B represents trace degradation at 30 μM (below 20%)) | A |  | E (E represents degradation at 3 μM (>90%))
7 | Cc1c(Cl)cc(NC(=O)NCc2ccc3c(c2)C(=O)N(C2CCC(=O)NC2=O)C3)cc1CC1COCOC1 (centres unmarked) [Compound 132] | A | C (C represents weak degradation at 30 μM (below 50%)) |  | F (F represents degradation at 0.3 μM (>90%))
